From US12599591B2, “Vemurafenib and salts thereof for use in the treatment of enteroviral infections” (Jyväskylän yliopisto, priority 2018, dated 2026)

How the values were obtained:
Echovirus 1 (EV1) = assay type: cell-based, Farouk strain
EV1 [1] = test: Uncoating of radioactively labeled EV1 in endosomes of A549 cells, sucrose gradients; conditions: 5 μM, 4 h p.i.
EV1-infected A549 cells = assay type: cell-based, human
[2] = system: Coxsackie virus A9 (CVA9); test: CVA9 infection of A549 cells, cell viability (CTG assay / crystal violet); assay type: cell-based, Griggs strain; conditions: 18 h post infection
Description: (§1) FIG. 1. […] A549 cells were treated for 1 h with different concentrations of vemurafenib before Echovirus 1 (EV1), Coxsackie virus B3 (CVB3) or Coxsackie virus A9 (CVA9) infection, and vemurafenib was present after addition of viruses. Further, non-infected control cells were included. After 18 h post infection, the cell viability was determined by cell viability Glo-titer assay according to the instructions by the manufacturer (CTG assay, which measures cellular ATP levels, Promega; left figure) or crystal violet staining as described before (right figure; Martikainen et al., 2015). Values are means±SD.
(§2) Adenocarcinoma human alveolar basal epithelial (A549, ATCC) cells were cultured in Dulbecco's modified eagle medium (DMEM; Gibco) supplemented with 10% fetal bovine serum (FBS; Gibco), 1% Glutamax (Gibco) and 1% penicillin and streptomycin antibiotics (Gibco) for 24 h. […] In addition, non-infected control cells were included. After 18 h post infection (p.i.), the cell viability was determined by cell titer-Glo assay according to the instructions by the manufacturer (CTG assay, which measures cellular ATP levels, Promega; left figure) or crystal violet staining as described before (right figure; Martikainen et al. 2015). Values are means±SD.

[3] = system: respiratory syncytial virus (RSV); assay type: cell-based; conditions: Hela cells, 5 or 10 μM, 20 h
[4] = system: Coxsackie virus B3 (CVB3); test: CVB3 infection of A549 cells, cell viability (CTG assay / crystal violet); assay type: cell-based, Nancy strain; conditions: 18 h post infection
Description: as §1, §2

EV1 RNA = test: Transfection of EV1 genomic RNA into A549 cells, VP1 labeling; conditions: 5 μM, 6 h
CVB4 = test: Persistent CVB4 infection of Panc-1 cells, viral titers and viral RNA; assay type: cell-based; conditions: 7.5 μM each 2 to 3 days
[5] = system: vesicular stomatitis virus (VSV); assay type: cell-based
EV1 [6] = test: Time of addition assay, EV1 infection of A549 cells, VP1 labeling; assay type: cell-based; conditions: EV1, 5 μM, infection followed until 6 h p.i.
EV1 particle = test: Real-time spectroscopic assay of EV1 particle opening (Sybr green II); conditions: 5 μM, 3 h at +37° C.
HPEV1 IRES = assay type: cell-based, HPEV1 strain 22 Harris; conditions: Hela cells, 5 μM, 24 h
[7] = system: CVB4 E2 diabetogenic strain; test: CVB4 infection of Min-6 pancreatic beta cells, crystal violet viability; assay type: cell-based; conditions: mouse pancreatic beta cell line Min-6, 0.25-7.5 μM, MOI of 1, crystal violet
adenovirus 5 = test: Adenovirus 5 GFP transduction of A549 cells; conditions: 5 μM, 17 h
Poliovirus 3 = assay type: cell-based, polio-3 (vaccine strain); conditions: A549 cells, 2 days of infection, Cell Titer Glo
3D polymerase of CVB3 = 3D polymerase of CVB3 (Coxsackievirus B3, UniProt P03313); test: RNA elongation assay with viral 3D polymerase; assay type: biochemical; conditions: various inhibitor concentrations, RT
Description: FIG. 19. […] An RNA elongation assay was used to study the effect of vemurafenib on viral 3D polymerase. […] At 15 min, GTP and ATP were added along with RNA2 (SEQ ID NO:2) allowing 3D+RNA1 complexes to incorporate ATP and GTP (forming +2 product) as well as initiate and incorporate GTP and RNA2 (forming +1 product). After 10 min, each reaction was “chased” to fully elongated product by adding the remaining NTPs.
An RNA elongation assay was used to study the effect of vemurafenib on viral 3D polymerase. […] At 15 min, GTP and ATP were added along with RNA2 (SEQ ID NO: 2) allowing 3D+RNA1 complexes to incorporate ATP and GTP (forming +2 product) as well as initiate and incorporate GTP and RNA2 (forming +1 product). After 10 min, each reaction was “chased” to fully elongated product by adding the remaining NTPs.

[8] = system: human rhinovirus B14 (HRVB14); test: HRVB14 replication in Hela cells by dsRNA (J2) labeling; conditions: 5 μM, 6 h at +34° C.
influenza A(H1N1)pdm09 = conditions: reported by McKimm-Breschkin et al.; cited from earlier work
[9] = system: semliki forest virus (SFV); assay type: cell-based; conditions: Hela cells, 5 or 10 μM, 6 h
EV1 [10] = test: EV1 replication in A549 cells by dsRNA (J2) labeling; assay type: cell-based; conditions: 5 μM, 3, 4 or 6 h p.i.
EV1 IRES = assay type: cell-based, EV1 Farouk strain; conditions: Hela cells, 5 μM, 24 h
[11] = system: Coxsackie virus B (CVB) serotypes (1-6); test: CVB serotypes 1-6 infection of A549 cells, crystal violet viability; assay type: cell-based; conditions: 18 h of infection, dose dependent
Description: FIG. 2. […] Different concentrations of vemurafenib were tested against different Coxsackie virus B (CVB) serotypes (1-6) by treating A549 cells with the drug for 1 h and then infecting the cells with the viruses. Cell viability was determined after 18 h of infection using crystal violet staining. The results were normalized to control sample with no virus infection and 0 μM concentration of vemurafenib (CTRL). The values are means±SD.
Finally, the cell viability was determined using crystal violet staining. The results were normalized to control sample with no virus infection and 0 μM concentration of vemurafenib (CTRL). The values are means±SD.

viral protease 3C = viral protease 3C (Coxsackievirus B3, UniProt P03313); test: Viral protease 3C action on G3BP1 in Hela cell homogenate, western blotting; assay type: biochemical; conditions: 5, 10 or 20 μM, RT for 18 h
Description: (§3) FIG. 18. […] The results were detected by western blotting and known cellular targets for 2A and 3C, poly A binding protein (PABP) and stress granule assembly factor 1 (G3BP1) respectively, were immunolabeled. The results are representative of two separate experiments.
(§4) The reaction was carried out in buffer containing 20 mM HEPES (pH 7.4), 0.12 M KCH3COO, 4 mM Mg(CH3COO)2 and 5 mM DTT with or without vemurafenib (5, 10 or 20 μM) being present. The reactions were carried out at RT for 18 h, after which they were terminated by adding Laemmli sample buffer and heating at 100° C. for 9 min. The samples were run in 4-20% Miniprotean TGX stain free gel (Biorad). The gel was UV-activated for 5 min with Chemidoc MP (Biorad) to reveal the total protein amount, after which the proteins were transferred to PVDF membrane (Immobilon-P, Merck Millipore). Next, the blot was blocked o/n with 5% BSA in 0.05% tween in TBS. Poly A binding protein (PABP) was detected using 1:100 dilution of mouse anti-PABP (Santa Cruz). Stress granule assembly factor 1 G3BP1 was detected using 1:1000 dilution of mouse anti-G3BP1 (Santa Cruz).

CV-B4 E2 = test: CVB4 infection in mice, infectious viral titer in heart and pancreas; assay type: in vivo, Hsd:ICR(CD-1) female mice; conditions: 10 mg/kg intraperitoneally once a day for 5 days, sacrificed on day 6
viral protease 2A = viral protease 2A (Coxsackievirus B3, UniProt P03313); test: Viral protease 2A action on PABP in Hela cell homogenate, western blotting; assay type: biochemical; conditions: 5, 10 or 20 μM, RT for 18 h
Description: as §3, §4

[12] = system: human parechovirus 1 (HPEV1); assay type: cell-based; conditions: A549 cells, 5 μM, 6 h
[13] = 1 h pre-treatment, dose dependent

viral protease 3C, sequence (P03313 1541-1723): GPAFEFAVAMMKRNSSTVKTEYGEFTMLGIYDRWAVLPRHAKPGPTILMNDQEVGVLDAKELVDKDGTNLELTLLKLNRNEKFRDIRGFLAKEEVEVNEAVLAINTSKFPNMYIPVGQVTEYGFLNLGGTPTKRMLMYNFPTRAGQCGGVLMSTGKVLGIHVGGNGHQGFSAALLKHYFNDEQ
viral protease 2A, sequence (P03313 852-1001): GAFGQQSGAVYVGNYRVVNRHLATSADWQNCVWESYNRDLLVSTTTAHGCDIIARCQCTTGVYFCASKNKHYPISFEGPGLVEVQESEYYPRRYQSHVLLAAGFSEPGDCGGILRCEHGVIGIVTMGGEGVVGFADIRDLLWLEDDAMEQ
3D polymerase of CVB3, sequence (P03313 1724-2185): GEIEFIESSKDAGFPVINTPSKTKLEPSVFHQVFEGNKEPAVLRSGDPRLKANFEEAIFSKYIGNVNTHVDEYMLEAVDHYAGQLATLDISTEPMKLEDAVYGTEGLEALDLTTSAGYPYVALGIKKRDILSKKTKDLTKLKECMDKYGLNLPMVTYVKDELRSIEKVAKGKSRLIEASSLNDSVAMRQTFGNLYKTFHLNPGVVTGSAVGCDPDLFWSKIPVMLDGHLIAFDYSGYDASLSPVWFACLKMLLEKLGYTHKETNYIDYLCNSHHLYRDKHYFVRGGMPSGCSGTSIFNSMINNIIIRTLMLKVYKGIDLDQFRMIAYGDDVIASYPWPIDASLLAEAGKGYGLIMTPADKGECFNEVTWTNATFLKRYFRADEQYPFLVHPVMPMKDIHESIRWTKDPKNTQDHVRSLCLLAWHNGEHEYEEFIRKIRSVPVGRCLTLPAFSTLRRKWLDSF

For `CCCS(=O)(=O)Nc1ccc(F)c(C(=O)c2c[nH]c3ncc(-c4ccc(Cl)cc4)cc23)c1F` [vemurafenib, N-(3-(5-(4-chlorophenyl)-1H-pyrrolo[2,3-b]pyridine-3-carbonyl)-2,4-difluorophenyl)propane-1-sulfonamide], the “effect on EV1 infection (cell viability)” value (Echovirus 1 (EV1)) was “prevents the infection”, the “effect on uncoating of EV1 inside endosomes” value (EV1 [1]) was “does not affect the uncoating” and the “effects on BRAF in the transcriptomics study” value (EV1-infected A549 cells) was “no effects”. The “effect on EV1-induced up- or downregulation of mRNAs” value (EV1-infected A549 cells; A549 cells, 6 h pi, Illumina Human HT-12 v4) was “attenuated almost all the effects of the virus”, the “effect on CVA9 infection (cell viability)” value [2, 13] was “rescued the cells” and the “concentration of maximal inhibition of CVA9 infection” value [2] was 5 µM. The “effect on RSV infection (GFP infection percentage)” value [3] was “not effective”, the “effect on CVB3 infection (cell viability)” value [4, 13] was “rescued the cells” and the “concentration of maximal inhibition of CVB3 infection” value [4] was 5 µM. For the same molecule, the “effect on infection after transfection of genomic RNA of EV1” value (EV1 RNA) was “totally prevented infection”, the “presence of viral RNA in persistently infected Panc-1 cells” value (CVB4; qPCR at day 7, 9, 14 and 21) was “totally eradicated” and the “level of infectious viral particles (capsid) in persistently infected Panc-1 cells” value (CVB4; supernatant titers on HEp-2 cells) was “totally eradicated”. For the same molecule, the “effect on VSV infection (GFP infection percentage)” value [5] was “not effective”, the “time of administration at which efficacy is lost” value (EV1 [6]) was at least 3 h p.i and the “direct virucidal effect on EV1 particle (genome release)” value (EV1 particle) was “does not have direct virucidal effects”. The “effect on HPEV1 IRES-based translation (mCherry fluorescence)” value (HPEV1 IRES) was “does not have direct effects”, the “effect on CVB4 infection of Min-6 cells (cell viability)” value [7] was “efficiently rescued” and the “effect on adenovirus 5 transduction (GFP positive cells)” value (adenovirus 5) was “not effective”. The “effect on polio-3 infection (cell viability)” value (Poliovirus 3) was “efficiently rescued”, the “effect on CVB3 3D polymerase action” value (3D polymerase of CVB3) was “does not prevent its action, nor binding or elongation of the nascent RNA chain” and the “effect on HRVB14 replication (dsRNA J2 intensity)” value [8] was “decreases the replication”. For the same molecule, the “efficacy against influenza A(H1N1)pdm09 infection compared with oseltamivir” value (influenza A(H1N1)pdm09) was “greater efficacy than oseltamivir”, the “effect on SFV infection (GFP infection percentage)” value [9] was “not effective” and the “effect on EV1 replication (replication intermediate, dsRNA)” value (EV1 [10]) was “prevented”. For the same molecule, the “effect on EV1 IRES-based translation (mCherry fluorescence)” value (EV1 IRES) was “does not have direct effects”, the “effect on infection by CVB serotypes 1 to 6 (cell viability)” value [11] was “inhibited” and the “effect on viral protease 3C action (G3BP1)” value (viral protease 3C) was “does not have direct effects”. The “levels of infectious CVB4 in heart tissue” value (CV-B4 E2) was “significantly decreased”, the “levels of infectious CVB4 in pancreas tissue” value (CV-B4 E2) was “significantly decreased” and the “effect on viral protease 2A action (PABP)” value (viral protease 2A) was “does not have direct effects”. The “effect on HPEV1 infection (VP1 positive cells)” value [12] was “not effective”.
